According to US20180042874A1, “METHOD FOR TREATING OSTEOPOROSIS” (China Medical University, priority 2016, published 2018):

What was measured:
hepatitis B virus (HBV) = settings: human hepatocellular carcinoma cells; cited from earlier work
NF-κB p65 = experiment: Western blot of NF-κB p65; type: cell-based, mouse; settings: 10 μg/ml co-treated with 100 ng/ml RANKL, 48 hours
Method: (§1) The effect of the compound of formula I on the protein expression of osteoclast MAPKs pathways induced by receptor activator of nuclear factor κB ligand was studied, experiments were performed by using the Western blot method; RAW 264.7 cells were rinsed in ice-cold PBS, cell lysis buffer was added, the components of the buffer solution included: 10 mM 4-(2-hydroxyethyl)-1-piperazineethanesulfonic acid (HEPES), 1.5 mM MgCl2, 0.5 mM dithiothreitol (DTT), 0.5 μg/ml leupeptin and 6.4% Nonidet P-40, reacted on ice for 15 minutes. The cells were scraped off with a spatula, collected into a 1.5 ml centrifuge tube, the cells were thoroughly broken by using a shaker; centrifuged at 12,000 rpm, 4° C. for 10 minutes; supernatant was added into a new 1.5 ml centrifuge tube; boiled with IX sodiumdodecyl sulfate (SDS) sample buffer, followed by electrophoresis using 10 to 12% SDS-PAGE. […] The transfer membrane was rinsed again and the membrane loaded with chemical luminescence reagent ECL was allowed to react with a photosensitive sheet in a darkroom for a suitable period of time, the photosensitive sheet then reacted with the developer. After the photosensitive sheet was exposed to light a band-shaped antibody-binding proteins was observed, quantified by the density of the bands. […]

ERK = experiment: Western blot of MAPK pathway, phosphorylated ERK; type: cell-based, mouse; settings: 10 μg/ml co-treated with 100 ng/ml RANKL, 0-60 minutes
Method: as §1

RAW 264.7 cells = experiment: Cytotoxicity test (MTT colorimetric assay); type: cell-based
Source text: MTT (3-(4,5-dimethylthiazol-2-yl)-2,5-diphenyl tetrazolium bromide is yellow when dissolved in a phenol red-free medium. The yellow MTT solution is reduced by succinate dehydrogenase in mitochondria of living cells into purple insoluble formazan crystals, deposited in the cells generating blue formazan crystals. The amount of formazan crystals produced is proportional to the number of viable cells (succinate dehydrogenase in dead cells is degraded and unable to reduce MTT). Formazan crystals can be dissolved in acidic isopropanol or dimethyl sulfoxide (DMSO), and an enzyme linked immunosorbent assay detector can be used to measure the light absorption value, therefore, MTT can be used as a marker for cell survival rate.
Cytotoxicity test of the compound of formula I in RAW 264.7 cells was studied and detected by using the MTT colorimetric assay. […] After being cultured in an incubator at 37° C. for 4 hours, equivalent amount of cell culture solution by volume was added into dimethyl sulfoxide to dissolve MTT Formazan, 100 μl was respectively collected and placed in a 96 well-plate, and the light absorption value at 570 nm was determined by using an enzyme immunosorbent assay detector. The Cell survival rate (%) was calculated by using the following formula: (light absorption value of drug-treated cells)/light absorption value of culture solution-treated cells)×100%.
Firstly, we would like to know whether the compound of formula I were toxic to RAW 264.7 cells, and concentrations appropriate for subsequent experiments were to be selected. After being treated with 0, 1, 5, 10, 20, 40, 80 μg/ml of the compound of formula I for 72 hours, detected with the MTT colorimetric assay. […] To confirm the selected concentrations of the compound of formula I would not produce cytotoxin in the subsequent experiments, 10 μg/ml, 20 μg/ml of the compound of formula I were respectively used for treatment of 3, 6, 9, 12 days, the culture solution was replaced with fresh ones of the same condition once every three days and then detected with the MTT colorimetric assay.

CNC(=O)N[C@]1(C)CCC[C@@]2(C)C3CC[C@@]4(C)C[C@]3(CCC21)CC4=O (single isomer, unassigned; ent-16) [compound of formula I, ent-16-oxobeyeran-19-N-methylureido]
secretion of hepatitis B virus antigen (HBeAg) (hepatitis B virus (HBV)): effectively suppress
secretion of hepatitis B virus surface antigen (HBsAg) (hepatitis B virus (HBV)): effectively suppress
NF-κB p65 protein expression (NF-κB p65): protein expression was reduced
expression of phosphorylated ERK (ERK): decreased
cytotoxicity over time (MTT) (RAW 264.7 cells; 10 μg/ml, 3, 6, 9, 12 days): no cytotoxin was produced
concentration above which cytotoxic (decreased survival rate) (RAW 264.7 cells; 72 hours): higher than 40 μg/ml
IC50 (RAW 264.7 cells; Mus musculus, RAW264.7, 72 hours, 0-80 μg/ml, read-out: IC50 (cell survival rate, MTT)): ~40 µg/mL
